Where two headings read alike, the source gives them in different places.

Data set [1] has as its target T1, CYP2A13 (Homo sapiens, UniProt Q16696).
T1 construct: made in house
T1 sequence (Q16696 1-494): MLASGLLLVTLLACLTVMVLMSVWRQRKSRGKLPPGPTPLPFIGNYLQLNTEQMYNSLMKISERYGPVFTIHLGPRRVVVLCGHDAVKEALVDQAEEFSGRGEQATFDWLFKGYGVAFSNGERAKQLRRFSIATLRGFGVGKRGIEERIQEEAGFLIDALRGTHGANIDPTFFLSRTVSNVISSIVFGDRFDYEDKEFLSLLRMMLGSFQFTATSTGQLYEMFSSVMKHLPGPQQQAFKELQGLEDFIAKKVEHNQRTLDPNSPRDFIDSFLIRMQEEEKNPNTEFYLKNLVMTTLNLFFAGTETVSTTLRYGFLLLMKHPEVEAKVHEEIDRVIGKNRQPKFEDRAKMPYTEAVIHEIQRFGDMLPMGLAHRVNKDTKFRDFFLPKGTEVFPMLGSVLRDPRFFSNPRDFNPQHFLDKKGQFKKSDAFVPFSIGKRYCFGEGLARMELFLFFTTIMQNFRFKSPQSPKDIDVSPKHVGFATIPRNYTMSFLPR
In words: Effects of trapping agents and dialysis on inactivation of CYP2A13. The class given is biochemical. Particulars: CYP2A13 inhibition reaction mixture, probe coumarin, compound 5 µM. The procedure:
(§1) MBI requires NADPH and time to generate reactive intermediate as inhibitor and ultimately inactivates the enzyme. MBI was evaluated by pre-incubation with each test inhibitor in the reaction at different time periods (0, 10, 20 and 30 min) in the presence of NADPH for time-dependent assay, as described. The apparent inactivation constants, KI and Kinact, were obtained from double reciprocal plots of kobs versus inhibitor concentrations by linear regression analysis on GraphPad Prism 5. Methoxsalen was used as a control mechanism-based inhibitor for time- and NADPH-dependent inhibition assays.
(§2) To explore whether inactivation of CYP2As by thiophenes 9–11 and of CYP2A13 by hirsutinolides 5-8 could be reversed, the removal of reversible inhibitory compounds by dialysis and addition of trapping agents (GSH, semicarbazide, catalase or potassium ferricyanide) in the inhibition reaction mixture were performed. […] Similarly, mechanism-based inactivation of both CYP2A6 and CYP2A13 by thiophenes 9–11 could not be reversed (Table 3).

Data set [2] has as its target T2, CYP2A6 (Homo sapiens, UniProt P11509).
T2 sequence (P11509 1-494): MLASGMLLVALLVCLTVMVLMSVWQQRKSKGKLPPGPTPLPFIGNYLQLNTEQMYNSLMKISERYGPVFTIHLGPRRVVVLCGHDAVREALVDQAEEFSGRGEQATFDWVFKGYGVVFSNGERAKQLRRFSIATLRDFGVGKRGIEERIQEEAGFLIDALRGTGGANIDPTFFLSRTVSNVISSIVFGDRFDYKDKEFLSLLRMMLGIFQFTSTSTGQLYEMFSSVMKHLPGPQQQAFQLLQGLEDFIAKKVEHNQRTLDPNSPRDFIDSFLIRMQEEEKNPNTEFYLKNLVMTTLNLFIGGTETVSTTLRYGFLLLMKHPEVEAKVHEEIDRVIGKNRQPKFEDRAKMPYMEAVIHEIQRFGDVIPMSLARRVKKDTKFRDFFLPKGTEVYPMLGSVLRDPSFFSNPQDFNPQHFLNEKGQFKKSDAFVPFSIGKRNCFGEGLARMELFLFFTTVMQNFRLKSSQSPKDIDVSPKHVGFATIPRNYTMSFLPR
The data set is described as follows: Inhibition of CYP2A6-mediated coumarin 7-hydroxylation, enzymatic reconstitution assay. The class given is biochemical. Also on record: made in house. Particulars: for Ki: coumarin 0–40 µM. As to the method:
(§3) Inhibitory effect of plant extracts, fractions, subfractions and constituents was determined by inhibition assay on CYP2A6- and CYP2A13-mediated coumarin 7-hydroxylation. The recombinant human CYP2A6, CYP2A13 and rat NADPH-dependent cytochrome P450 oxidoreductase (CYPOR) proteins were expressed, purified, according to the methods previously described. […] Rate of 7-hydroxycoumarin product formation was measured on spectrofluorometer (Shimadzu, Kyoto, Japan) at λex = 355 nm, λem = 460 nm. Inhibition effects were determined by incubation with extracts, fractions or purified compounds with coumarin substrate in the reaction mixture and calculated as per cent relative inhibition compared with vehicle control reaction[20] and IC50 values were calculated using GraphPad Prism 5 (GraphPad Software Inc., La Jolla, CA).
as §1

Data set [3] addresses T2, CYP2A6. In words: Mechanism-based (time- and NADPH-dependent) inactivation of CYP2A6. Format: biochemical. More on the design: made in house. Particulars: human, recombinant human CYP2A6, probe coumarin, pre-incubation 0-30 min with NADPH; for KI (inactivation): read-out: CYP2A6 KI (inactivation constant). As to the method: as §1
Data set [4] deals with T1, CYP2A13. The data set is described as follows: Inhibition of CYP2A13-mediated coumarin 7-hydroxylation, enzymatic reconstitution assay. Conditions: for Ki: coumarin 0–40 µM. Format: biochemical. As to the method: as §3, §1
Data set [5] deals with T1, CYP2A13. In words: Mechanism-based (time- and NADPH-dependent) inactivation of CYP2A13. Format: biochemical. Conditions: pre-incubation 0-30 min with NADPH; for KI (inactivation): read-out: CYP2A13 KI (inactivation constant). The procedure: as §1
The target in data set [6] is T2, CYP2A6. The data set is described as follows: Effects of trapping agents and dialysis on inactivation of CYP2A6. Also on record: made in house. Particulars: CYP2A6 inhibition reaction mixture, probe coumarin, compound 5 µM. Format: biochemical. The procedure: as §1, §2
Data set [7] concerns the target T1, CYP2A13. Also on record: method as in PMID 23903410, PMID 17672516. Particulars: literature values; cited from earlier work.
Data set [8] deals with T2, CYP2A6. Particulars: read-out: inactivation kinetic values (KI) against CYP2A6; literature values; cited from earlier work.
Data set [9] has as its target T2, CYP2A6. More on the design: made in house; method as in PMID 25857233. Particulars: cited from earlier work.
The target in data set [10] is T2, CYP2A6. More on the design: made in house. Particulars: ref Prasopthum et al., 2015, cited from earlier work.
[11] abbreviates: read-out: Per cent remaining activity, 70 μM K3Fe(CN)6.
The mark [12] stands for this setting: read-out: Per cent remaining activity, 2 mM GSH.
The mark [13] stands for this setting: read-out: Per cent remaining activity, 5 mM semicarbazide.
[14] abbreviates: read-out: Per cent remaining activity, 2000 U catalase.
Where [15] appears, read: read-out: Per cent remaining activity, Dialysis (+) NADPH.
Where [16] appears, read: read-out: Per cent remaining activity, Dialysis (−) NADPH.
[17] abbreviates: read-out: Per cent remaining activity, Pre-incubation.
Setting [18] is: 10-min pre-incubation in the presence of NADPH, read-out: IC50 CYP2A6 Pre-incubation.
Where [19] appears, read: coincubation, coumarin 2 µM, read-out: IC50 CYP2A6 Coincubation.
The mark [20] stands for this setting: 10-min pre-incubation in the presence of NADPH, read-out: IC50 CYP2A13 Pre-incubation.
The mark [21] stands for this setting: coincubation, coumarin 2 µM, read-out: IC50 CYP2A13 Coincubation.

A word on the IC50: it is the concentration that inhibits the measured activity by half. One may read the Ki as a dissociation constant, usually derived from enzyme kinetics or from competition with a known ligand. As a reminder, the kinact is the maximal first-order rate at which the target is inactivated. For the compound `CC#Cc1ccc(C#CC#CC(O)COC(C)=O)s1` (stereo not drawn) [Thiophene 10, 2-(prop-1-inyl)-5–(6-acetoxy-5-hydroxyhexa-1,3-diinyl) thiophene], the activity at 5 µM on CYP2A13 [1] (setting [11]) turned out to be 26.9 ± 1.75%; on CYP2A13 [1] (setting [12]), 27 ± 8.11%; on CYP2A13 [1] (setting [13]), 27 ± 8.11%; on CYP2A13 [1] (setting [14]) it was 22.2 ± 2.38%; on CYP2A13 [1] (setting [15]), 21.4 ± 3.95%; on CYP2A13 [1] (setting [16]), 93 ± 6.58%. The activity at 5 µM at CYP2A13 [1] (setting [17]) was 28.9 ± 1.25%; on CYP2A6 [6] (setting [11]), 19.2 ± 1.83%; at CYP2A6 [6] (setting [12]), 28.5 ± 1.72%; on CYP2A6 [6] (setting [13]), 21.1 ± 3.31%; at CYP2A6 [6] (setting [14]) it was 24.1 ± 4.49%; on CYP2A6 [6] (setting [15]) it was 23.7 ± 2.06%. In addition, the activity at 5 µM on CYP2A6 [6] (setting [16]) turned out to be 87.5 ± 9.25%; on CYP2A6 [6] (setting [17]), 35.2 ± 3.22%. Moreover, the “CYP2A6 Mode of inhibition” value on CYP2A6 [2] is reported as “Mixed type”. Further, the IC50 on CYP2A6 [2] (setting [18]) amounted to 2970 ± 10 nM; at CYP2A6 [2] (setting [19]) it was 4440 ± 140 nM; at CYP2A13 [4] (setting [20]), 1150 ± 880 nM; at CYP2A13 [4] (setting [21]), 2940 ± 10 nM. Besides, the figures for the Ki at CYP2A6 [2] and on CYP2A13 [4] were 2070 ± 230 nM and 1120 ± 90 nM, respectively. Also, the kinact on CYP2A6 [3] is 0.00183 s⁻¹; on CYP2A13 [5] it was 0.001 s⁻¹. Also, the results for the KI (inactivation) at CYP2A6 [3] and at CYP2A13 [5] were 1010 ± 70 nM and 860 ± 90 nM, respectively. For the same compound, the “CYP2A13 Mode of inhibition” value on CYP2A13 [4] is given as “Mixed type”.
In the case of `C/C=C(\C)CC/C=C(\C)C(=O)OCC(C)(C)CC1=C(O)C(=O)c2ccccc2C1=O` [rhinacanthin-C, reference compound], the “KI values against CYP2A13” value at CYP2A13 [7] is 1680 nM. On CYP2A6 [8], the KI (inactivation) was 970 nM.
Turning to rhinacanthin-B [reference compound], the “KI values against CYP2A13” value at CYP2A13 [7] was 160 nM. On CYP2A6 [8], the KI (inactivation) was 440 nM.
Take `CC(C)(C)N=C=S` [tert-butyl isothiocyanate]: the “KI values against CYP2A13” value at CYP2A13 [7] was 4300 nM.
`O=c1cc(-c2ccc(O)c(O)c2)oc2cc(O)cc(O)c12` [Luteolin 2, luteolin]: the “inhibition of CYP2A6-mediated nicotine metabolism” value at CYP2A6 [9] is listed as “showed inhibition”. Further, the IC50 on CYP2A13 [4] (setting [20]) was 170 ± 10 nM; at CYP2A13 [4] (setting [21]), 180 ± 20 nM; on CYP2A6 [10] (setting [18]), 1260 ± 70 nM; on CYP2A6 [10] (setting [19]), 1380 ± 180 nM. Moreover, the results for the Ki at CYP2A13 [4] and at CYP2A6 [10] (coumarin 0–40 µM) were 70 ± 10 nM and 800 ± 60 nM, respectively. Moreover, the “CYP2A6 Mode of inhibition” value on CYP2A6 [10] is listed as “Competitive^b”.
As to rhinacanthin-A [reference compound], at CYP2A13 [7], the “KI values against CYP2A13” value was 420 nM. Also, the KI (inactivation) on CYP2A6 [8] was 690 nM.
In the case of `S=C=NCCCc1ccccc1` [phenylpropyl isothiocyanate], the “KI values against CYP2A13” value on CYP2A13 [7] was 140 nM.
For `S=C=NCCCCCCc1ccccc1` [phenylhexyl isothiocyanate], at CYP2A13 [7], the “KI values against CYP2A13” value was 1100 nM.
For `CC#CC#Cc1ccc(C#CC(O)COC(C)=O)s1` (stereo not drawn) [Thiophene 9, 2-(penta-1,3-diyn-1-yl)-5–(4-acetoxy-3-hydroxybuta-1-yn-1-yl) thiophene], the activity at 5 µM on CYP2A13 [1] (setting [11]) amounted to 24.9 ± 3.95%; at CYP2A13 [1] (setting [12]), 23.2 ± 3.38%; on CYP2A13 [1] (setting [13]), 23.2 ± 3.38%; at CYP2A13 [1] (setting [14]) it was 22.1 ± 2.39%; at CYP2A13 [1] (setting [15]) it was 20.9 ± 0.24%; at CYP2A13 [1] (setting [16]) it was 85.3 ± 4.98%. Further, the activity at 5 µM on CYP2A13 [1] (setting [17]) is 29 ± 4.57%; on CYP2A6 [6] (setting [11]), 22.7 ± 1.58%; on CYP2A6 [6] (setting [12]) it was 21.6 ± 1.97%; at CYP2A6 [6] (setting [13]), 26.8 ± 2.39%; on CYP2A6 [6] (setting [14]), 26.9 ± 3.07%; on CYP2A6 [6] (setting [15]), 20.1 ± 5.21%. Further, the activity at 5 µM is 89.3 ± 7% on CYP2A6 [6] (setting [16]) and 30.1 ± 3.7% on CYP2A6 [6] (setting [17]). The “CYP2A6 Mode of inhibition” value on CYP2A6 [2] is “Mixed type”. Further, the IC50 at CYP2A6 [2] (setting [18]) turned out to be 2120 ± 190 nM; on CYP2A6 [2] (setting [19]) it was 6430 ± 1290 nM; at CYP2A13 [4] (setting [20]), 2290 ± 340 nM; on CYP2A13 [4] (setting [21]) it was 6180 ± 280 nM. Further, the Ki amounted to 3230 ± 430 nM on CYP2A6 [2] and 2960 ± 100 nM on CYP2A13 [4]. Moreover, the kinact is 0.00167 s⁻¹ at CYP2A6 [3] and 0.00133 s⁻¹ at CYP2A13 [5]. The KI (inactivation) on CYP2A6 [3] came to 880 ± 90 nM; on CYP2A13 [5] it was 970 ± 40 nM. Besides, the “CYP2A13 Mode of inhibition” value on CYP2A13 [4] is given as “Mixed type”.

Values taken from publication PMC6009911, “Inhibition of human cytochromes P450 2A6 and 2A13 by flavonoids, acetylenic thiophenes and sesquiterpene lactones from Pluchea indica and Vernonia cinerea” (Journal of Enzyme Inhibition and Medicinal Chemistry, 2017).
